Reference: patent US6274615A, “Method for delaying the onset of alheimer's disease and for treatment or delaying the onset of other amyloidosis-related diseases/disorders” (South Alabama Medical Science Foundation, priority 1999, dated 2001)
Entries after “also recorded” stand apart in the source; their conditions may differ. Where two headings read alike, the source gives them in different places. Blank lines part the entries; values can stand above or below the compound they belong to.

What was measured:
Aβ1-40 [1] = biological target: T1, Aβ1-40 (Homo sapiens, UniProt P05067); test: Circular dichroism spectroscopy of Aβ1-40 (secondary structure); details: for structural changes (secondary structure) / change of random conformation / change of β-sheet content: Aβ1-40 250 μM + 100 μM compound; for structural changes (secondary structure): 24 h; for change of random conformation / change of β-sheet content: time 0
T1 construct: aggregates to fibrils
Procedure: (§1) The corresponding percentages of the different secondary structure motifs are shown for Aβ1-40 at time 0 in (FIG. 1C) and 24 hours (FIG. 1D) and for Aβ1-42 at time 0 (FIG. 1G) and 4 hours (FIG. 1H). An average of 40 scans/independent experimental condition was obtained. An independent experiment yielded qualitatively similar data.
(§2) Peptides Aβ1-40 and Aβ1-42 were synthesized in the W. M. Keck Foundation (Yale University, Conn.), and their purity was evaluated by amino acid sequence and laser […] mass spectrometry as described (Soto et al., 1996).
(§3) Spectra in the far ultraviolet light (190-250 nm) were recorded at various time intervals with a Jasco-720 spectropolarimeter as described (Soto et al., 1996) using a cell path of 0.01 cm. […] 40 scans/experimental condition were obtained at 0.2 nm intervals over the wavelength range 190-250 nm. The data were analyzed by the Lincomb algorithm (Perczel et al., 1992) to obtain the percentages of the different secondary structure motifs.

Aβ1-42 [2] = biological target: T2, Aβ1-42 (Homo sapiens, UniProt P05067); test: Circular dichroism spectroscopy of Aβ1-42 (secondary structure); details: for structural changes (secondary structure): Aβ1-42 250 μM + 100 μM compound, time 0 and 4 h; for amount of β-sheet structures: Aβ1-42 250 μM + melatonin 100 μM
T2 construct: aggregates to fibrils
Procedure: as §1, §2, §3

Aβ1-40 [3] = biological target: T1, Aβ1-40; test: Electron microscopy of Aβ1-40 amyloid fibril formation; assay type: biochemical
Source text: Bar is 200 nm. […] EM grids were extensively and carefully examined, and a negative result was only documented when fibrils were totally absent from the grids.

Aβ1-42 [4] = biological target: T2, Aβ1-42; test: Electron microscopy of Aβ1-42 amyloid fibril formation; assay type: biochemical
Procedure: The formation of amyloid fibrils was monitored at 0, 2, and 6 h.

Aβ1-40 [5] = biological target: T1, Aβ1-40; test: 1H NMR titration of Aβ1-40 with melatonin (binding)
Procedure: The solution conditions for the NMR and CD studies were similar, except that deuterated water (D2 O) in phosphate buffer was used in the NMR study. All ^1 H NMR spectra were obtained at 600 MHz using a Varian UnityPlus-600 spectrometer, and the data were processed using the FELIX program (version 95.0, Biosym, Inc.). The NMR solutions were prepared in D2 O (0.6 ml) with sodium phosphate buffer (5 mM, pH 7.5), perdeuterated Na2 EDTA (0.5 mM), NaN3 (0.05 mM), and 3-(trimethylsilyl) propionate-2,2,3,3-d4 (0.05 mM), the last of which serves as a internal chemical shift reference at 0 ppm. The NMR measurements were performed at 10° C. and the residual proton absorption of D2 O was suppressed by low power irradiation during the recycle delay. For all spectra, 128 scans were required with a total recycle delay of 4.2 s, which included an acquisition time and recycle delay of 2.2 and 2.0 s, respectively. The digital resolution of the acquired data was 0.24 Hz/pt, which was reduced to 0.12 Hz/pt by zero-filling the data once before processing. To further improve the resolution, before Fourier transformation spectra were multiplied by a Lorentzian-to-Gaussian weighting factor. This experiment was duplicated on two different days.

[6] = system: cultured neuroblastoma cells; details: cytotoxic fragment of amyloid β-protein; Pappolla et al., 1997; cited from earlier work
[7] = Tan et al., 1993, cited from earlier work
[8] = system: circadian disorders due to jet lag; details: oral, 0.25-10 mg; Arendt et al., 1987; cited from earlier work
calmodulin = details: Benitez-King et al., 1993; cited from earlier work
microtubular components = details: Benitez-King et al., 1993; cited from earlier work
[9] = system: intrinsic cellular antioxidant defenses; details: Huerto-Delgadillo et al., 1994; cited from earlier work
[10] = cited from earlier work
[11] = Aβ1-40, incubated for up to 48 h

T2 sequence (P05067 672-713): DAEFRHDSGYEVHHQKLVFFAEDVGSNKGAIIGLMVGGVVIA
T1 sequence (P05067 672-711): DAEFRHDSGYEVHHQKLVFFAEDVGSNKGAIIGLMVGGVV

- structural changes (secondary structure) (Aβ1-40 [1]): no structural changes
- change of random conformation (Aβ1-40 [1]): This effect was not observed
- change of β-sheet content (Aβ1-40 [1]): This effect was not observed
- structural changes (secondary structure) (Aβ1-42 [2]): not elicited
Compound: CC(=O)NCCc1c[nH]c2ccc(O)cc12 [NAT, 5-hydroxy-N-acetyl-tryptamine]
- Aβ1-40 fibril formation (Aβ1-40 [3]; [11]): Well formed amyloid fibrils are easily recognized; also recorded: fibrils were abundant and easily identifiable

- change of random conformation (Aβ1-40 [1]): immediate increase
- change of β-sheet content (Aβ1-40 [1]): markedly diminished
- β-sheet content (Aβ1-40 [1]; Aβ1-40 250 μM + melatonin 100 μM, 24 h of incubation): 24%
- amount of β-sheet structures (Aβ1-42 [2]; 4 h of incubation): 59%
- amount of β-sheet structures (Aβ1-42 [2]; time 0): 65%
- concentration of melatonin inhibiting fibril formation in all tubes (Aβ1-40 [3]; 250 μM Aβ1-40, 48 h): above 10 μM
- Aβ1-40 fibril formation (Aβ1-40 [3]; 250 μM Aβ1-40 plus 100 μM melatonin): only amorphous material
- Aβ1-42 fibril formation (Aβ1-42 [4]; 250 μM Aβ1-42, 2 and 6 h): only amorphous material
- inhibition of Aβ1-42 fibril formation (Aβ1-42 [4]; melatonin 100 nM, 1 μM, 10 μM, 100 μM, and 200 μM): effective to inhibit fibril formation
- exchange regime of binding (Aβ1-40 [5]; no line broadening or separate peaks for bound and free states): fast exchange limit
Compound: COc1ccc2[nH]cc(CCNC(C)=O)c2c1 [melatonin, N-[2-(5-methoxy-1H-indol-3-yl)ethyl] acetamide]
- Aβ1-40 fibril formation (Aβ1-40 [3]; [11]): Fibrils were not formed; also recorded: no fibrils were detected
- Aβ1-42 fibril formation (Aβ1-42 [4]; 6 hrs., melatonin 100 μm (so in the source)): Well formed amyloid fibrils are easily recognized in FIG. 3A, but not in FIG. 3B
- site of binding on Aβ (Aβ1-40 [5]; NMR shifts with varied melatonin concentrations): not localized to a particular His site on Aβ
- prevention of cell death [6]: effective in preventing death of cultured neuroblastoma cells
- prevention of intracellular Ca^+2 increases [6]: effective in preventing
- prevention of oxidative damage [6]: effective in preventing
- crossing of the blood-brain barrier [7]: passes easily across the blood-brain barrier; also recorded: crosses the blood-brain barrier with ease
- crossing of the blood-brain barrier ([7]; listed as Melatonin): rapidly crosses the blood brain barrier
- treatment of circadian disorders due to jet lag [8]: used successfully to treat circadian disorders due to jet lag
- interaction with calmodulin (calmodulin): interacts with calmodulin
- interaction with microtubular components (microtubular components): interacts
- activity of intrinsic cellular antioxidant defenses [9]: increase the activity
- lipid solubility [10]: lipid soluble

Compound: CC(C)(C)[N+]([O-])=Cc1ccccc1 [PBN, N-t-butyl-α-phenylnitrone]
- structural changes (secondary structure) (Aβ1-40 [1]): only small effects
- change of random conformation (Aβ1-40 [1]): This effect was not observed
- change of β-sheet content (Aβ1-40 [1]): This effect was not observed
- structural changes (secondary structure) (Aβ1-42 [2]): not elicited
- Aβ1-40 fibril formation (Aβ1-40 [3]; [11]): Well formed amyloid fibrils are easily recognized; also recorded: fibrils were abundant and easily identifiable
- Aβ1-40 fibril formation (Aβ1-40 [3]; PBN 10, 100, and 200 μM, 48 h): Fibrils were abundant in all these tubes
